Marks after values point to notes of the source that are not given here.
Columns and labels:
[1] = tested on: Carrageenan-induced mechanical hyperalgesia; assay: Carrageenan-induced mechanical hyperalgesia, paw pressure (Randall-Sellito) test; type: in vivo, rats; conditions: for Effect on Carrageenan-induced mechanical hyperalgesia: all doses tested (10, 20, 40 mg/kg i.p.)
Experimental: Carrageenan-induced mechanical hvderalcesia in rats was induced by subplantar injection of a 0.1 ml of a 2% carrageenan suspension and measured 3 h afterwards by the paw pressure (Randall-Sellito) test.
(§1) Drugs and experimental design: SPM 927 and GBP were suspended in 1% methylcellulose and administered i.p. at doses of 10 mg/kg, 20 mg/kg and 40 mg/kg. Pre-treatment time was 30 min before pain measurement. One group of animals served as controls and consequently received an injection of solvent (10 ml/kg) and another group of animals received a reference compound (Carrageenan test: 10 mg/kg indomethacin; Formalin test: 10 mg/kg morphine). Each compound was tested in a separate experiment and each experiment included a control and a reference group. 10 rats per group were used in the Carrageenan test and 6 mice per group in the formalin test.

[2] = tested on: formalin-induced nociception (paw licking); assay: Subchronic inflammatory nociception in mice (formalin test); type: in vivo; conditions: for Nociceptive response induced by formalin: 10, 20, 40 mg/kg i.p.; for nociceptive threshold [s]: late phase (20-30 min), 10 mg/kg i.p.
Experimental: Subchronic inflammatory nocicoetion in mice was induced by the subplantar injection of formalin (0.02 ml of a 5% solution). Nociceptive behaviour (paw licking) was measured and quantified between 0 and 5 min (acute pain) and between 20 and 30 min (subchronic inflammatory pain) after formalin.
as §1

[3] = tested on: formalin-induced tonic inflammatory nociceptive behaviour; assay: Formalin test, rat (weighted behavioural scoring); type: in vivo
Experimental: The formalin test is a chemically-induced tonic pain model in which biphasic changes of nociceptive behaviour are assessed and spinal/supraspinal plasticity of nociception is considered as a molecular basis for neuropathic pain particularly during the second (=late) phase of the test, during which most clinically used drugs against neuropathic pain are active.
The compound was tested for anti-nociceptive properties by use of the weighted behavioural scoring method: Freely moving animals underwent observational assessment of the position of the left hind paw according to a rating score scaled 0-3 before and 10, 20, 30 and 40 min after injection of 0.05 ml of sterile 2.5% formalin under the skin on the dorsal surface of the paw.

[4] = tested on: spontaneous pain induced by unilateral chronic constriction injury; assay: Chronic constriction injury (CCI, Bennett-model), spontaneous pain; type: in vivo, rat; conditions: 5-40 mg/kg i.p.
Experimental: (§2) The effectiveness of harkoseride in reducing spontaneous chronic pain, mechanical allodynia, and thermal hyperalgesia was tested using the chronic constriction injury (CCI) model of peripheral neuropathy, one of the best characterised in vivo animal models used to study chronic pain due to peripheral nerve injury. In this model, loose ligatures are placed around the sciatic nerve, which produces axonal swelling and a partial deafferentation manifested as a significant but incomplete loss of axons in the distal portion of the peripheral nerve. One of the prominent behaviours seen following sciatic nerve ligation is the appearance of hind paw guarding, thought to be an indication of an ongoing spontaneous chronic pain. Support for this idea is derived from reports of increased spinal cord neural activity, and increased spontaneous neuronal discharge in spinothalamic tract neurons and in the ventrobasal thalamus in the absence of overt peripheral stimulation. In addition to the appearance of spontaneous pain behaviours, several abnormalities in stimulus evoked pain occur as a result of CCI, including thermal hyperalgesia and mechanical allodynia. […]
Spontaneous pain (ongoing pain without an apparent external stimulus) of the ligated paw was assessed for 5 min following a 10 min acclimation period by use of a rating score (weighted behaviour score scaled 0-5).

[5] = tested on: chronic constriction injury-induced thermal hyperalgesia; assay: Chronic constriction injury (CCI) model, thermal hyperalgesia; type: in vivo, rat; conditions: 5-40 mg/kg i.p.
Experimental: as §2
Thermal hyperalgesia was assessed by means of withdrawal latency in response to radiant heat applied to the subplantar surface of the ligated rat hind paw. […]

[6] = tested on: mechanical allodynia induced by unilateral nerve ligation; assay: Chronic constriction injury (CCI) model, mechanical allodynia (Von Frey); type: in vivo, rat; conditions: 5-40 mg/kg i.p.
Experimental: as §2
Mechanical sensitivity and allodynia of the ligated rat hind paw was quantified by brisk foot withdrawal in response to normally innocuous mechanical stimuli as described previously. […]

[7] = tested on: acute spinal thermal nociception; assay: Tail flick test, rat; type: in vivo
From the text: Harkoseride was additionally tested for potential activity in acute spinal thermal nociception using the tail flick test. In this model of acute thermal spinal/reflex hyperalgesia radiant heat is applied to the animal's tail approximately 2 cm from the tip and time latency for withdrawal reaction is automatically assessed by an algometer, a defined maximal stimulus time prevents tissue damage. This test is widely used as an assay for the anti-nociceptive efficacy of pharmacological agents and is highly predictive of acute analgesic efficacy in humans.
Results for 20 and 40 mg/kg harkoseride i.p are shown in table 5 [percent anti-nociception, calculated as [{(post-drug latency)−(pre-drug-latency)}/{(max. latency)−(pre-drug latency)}×100]±SEM, n=12/group]. A baseline or pre-drug tail-flick latency was determined by averaging 5 consecutive measurements taken 2 minutes apart. Vehicle (sterile water 0.04 ml/10 g body weight) or harkoseride were then administered and tail flick latencies recorded at 10-minute intervals for the next 60 minutes.

[8] = tested on: neuropathic pain (CHUNG), tactile stimulation; assay: Neuropathic pain (CHUNG) test, tactile stimulation on lesioned paw; type: in vivo, rat; conditions: tactile and thermal stimulation
From the text: The following Tables 8 and 9 show the effects of harkoseride (hereinafter referred to as SPM 927), carbamazepine, levetiracetam, gabapentin and morphine in the neuropathic pain (CHUNG) test in the rat. Eight (8) rats per group were used.

Row | SMILES | Effect on Carrageenan-induced mechanical hyperalgesia [1] | Nociceptive response induced by formalin [2] | nociceptive threshold [s] ([2]; GBP experiment) | nociceptive threshold [s] ([2]; SPM 927 experiment) | Formalin-induced tonic inflammatory nociceptive behaviour ([3]; i.p. just prior to formalin injection) | Efficacy in the late phase of the rat formalin test ([3]; late phase) | Level of spontaneous pain induced by unilateral chronic constriction injury [4] | Chronic constriction injury-induced thermal hyperalgesia [5] | Intensity of mechanical allodynia induced by unilateral nerve ligation [6] | Effect on the latency of the tail flick reflex ([7]; 20 and 40 mg/kg i.p.) | Anti-nociceptive effect detectable in the tail-flick test ([7]; rat, in vivo) | Antinociceptive effect relative to reference compound ([1]; vs 10 mg/kg indomethacin) | Efficacy on formalin-induced nociception, similar to that of morphine ([2]; mouse, in vivo) | Potency compared with the reference compounds in the CHUNG test [8]
1 | NCC1(CC(=O)O)CCCCC1 [GBP, gabapentin, reference compound] | no significant effect | slightly but not significantly inhibited | – | – | – | – | – | – | – | – | – | – | – | –
2 | CN1CC[C@]23c4c5ccc(O)c4O[C@H]2[C@@H](O)C=C[C@H]3[C@H]1C5 [Morphine, morphine] | – | – | 0 ± 0^a s | 10 ± 8^a s | – | – | – | – | – | – | – | – | – | –
3 | COC[C@@H](NC(C)=O)C(=O)NCc1ccccc1 [SPM 927, (R)-2-Acetamido-N-benzyl-3-methoxypropionamide] | full reversal | dose dependently suppressed | – | – | dose dependant reduction | Significant and dose dependent efficacy | did not change | dose dependently reduced | dose dependently reduced | little or no effect | no anti-nociceptive effect | comparable to that of the reference compound Indomethacin | near complete reversal | minimum comparable, but usually more potent than the reference compounds

From patent publication US7875652B2, “Method and composition for treating pain or tinnitus aureum” (UCB Pharma GmbH, priority 2001, dated 2011)
